Measurements from patent US9550811B2, “Peptide scaffold design” (BIONOR IMMUNO AS, priority 2010, dated 2017).

Legend:
Assay in all cases: REVEAL binding assay
Settings in all cases: score as percentage of the signal generated by the positive control peptide
HLA-A1 = system: HLA-A1
Description: (§5) The REVEAL™ binding assay determined the ability of each candidate peptide to bind to one or more MHC class I alleles and stabilizing the MHC-peptide complex. […] Detection is based on the presence or absence of the native conformation of the MHC-peptide complex. Each peptide is given a score relative to the positive control peptide, which is a known T cell epitope.

HLA-A24 = system: HLA-A24
Description: as §5

HLA-A29 = system: HLA-A29
HLA-B8 = system: HLA-B8
Description: as §5

HLA-B14 = system: HLA-B14
HLA-B15 = system: HLA-B15
HLA-A11 = HLA-A11 (Homo sapiens, UniProt P04439, A114D/F33Y/S129P)
Procedure: (§1) Binding properties to HLA for the ninemers listed in table 6 were tested for the following HLA-classes:
(§2) HLA-A1, HLA-A2, HLA-A3, HLA-A11, HLA-A24, HLA-A29, HLA-B7, HLA-B8, HLA-B14, HLA-B15, HLA-B27, HLA-B35, HLA-B40.
(§3) The peptides were synthesized as a Prospector PEPscreen®: Custom Peptide Library. […] Quality control by MALDI-TOF Mass Spectrometry was carried out on 100% of samples.
(§4) The REVEAL™ binding assay determined the ability of each candidate peptide to bind to one or more MHC class I alleles and stabilizing the MHC-peptide complex. By comparing the binding to that of high and intermediate affinity T cell epitopes, the most likely immunogenic peptides in a protein sequence can be identified. Detection is based on the presence or absence of the native conformation of the MHC-peptide complex. Each peptide is given a score relative to the positive control peptide, which is a known T cell epitope.

HLA-A2 = HLA-A2 (Homo sapiens, UniProt P04439, D140Y/D185E/D98H/E176V/E277Q/G131W/G231S/I119V/I121R/I166T/I218V/N151K/N90K/P208A/P217A/Q86G/Q94H/R138H/R169H)
Procedure: as §1, §2, §3, §4

HLA-A3 = HLA-A3 (Homo sapiens, UniProt P04439)
Sequence of HLA-A3 (P04439 25-299): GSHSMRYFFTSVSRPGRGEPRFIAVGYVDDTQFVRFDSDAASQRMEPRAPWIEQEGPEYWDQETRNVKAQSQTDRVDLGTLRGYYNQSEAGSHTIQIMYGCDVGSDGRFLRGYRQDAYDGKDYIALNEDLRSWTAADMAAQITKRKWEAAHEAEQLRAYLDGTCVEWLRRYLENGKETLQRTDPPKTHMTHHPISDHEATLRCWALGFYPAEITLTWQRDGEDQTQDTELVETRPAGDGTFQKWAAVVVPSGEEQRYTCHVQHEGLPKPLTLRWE
Sequence of HLA-A3 (P61769 21-119, further chain): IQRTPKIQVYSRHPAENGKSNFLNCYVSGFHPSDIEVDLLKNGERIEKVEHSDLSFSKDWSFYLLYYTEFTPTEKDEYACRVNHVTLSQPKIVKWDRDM
Procedure: as §1, §2, §3, §4

HLA-B27 = HLA-B27 (Homo sapiens, UniProt P01889, D138H/D201E/E176V/E204Q/G107R/H137Y/K202T/N104T/N87E/Q56L/Q94K/R106L/R155S/R180L/S101D/S121N/S48T/Y140D/Y33H/Y91C)
Procedure: as §1, §2, §3, §4

HLA-B7 = HLA-B7 (Homo sapiens, UniProt P01889)
Sequence of HLA-B7 (P61769 21-119): as the sequence (P61769 21-119, further chain) above
Sequence of HLA-B7 (P01889 25-299): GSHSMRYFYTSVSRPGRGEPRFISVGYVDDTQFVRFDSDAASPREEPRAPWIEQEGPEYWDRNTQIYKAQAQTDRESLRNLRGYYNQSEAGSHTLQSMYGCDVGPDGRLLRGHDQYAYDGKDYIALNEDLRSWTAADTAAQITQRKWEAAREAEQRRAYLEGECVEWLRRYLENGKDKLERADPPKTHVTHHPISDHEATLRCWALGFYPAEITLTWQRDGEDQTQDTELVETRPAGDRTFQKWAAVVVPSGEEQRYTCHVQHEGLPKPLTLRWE
Procedure: as §1, §2, §3, §4

HLA-B35 = system: HLA-B35
HLA-B40 = system: HLA-B40
Procedure: as §1, §2
The peptides were synthesized as a Prospector PEPscreen®: Custom Peptide Library. Peptides 8-15 amino acids in length were synthesized in 0.5-2 mg quantities with high average purity. Quality control by MALDI-TOF Mass Spectrometry was carried out on 100% of samples.
as §4, with “epitope. The score of the test peptide is reported quantitatively as a percentage of the signal generated by the positive control peptide, and the peptide is indicated as having a putative pass or fail result. Assay performance is confirmed by including an intermediate control peptide that is known to bind with weaker affinity to the allele under investigation.” for “epitope.”

Sequence | REVEAL binding score, HLA-type A1 (HLA-A1) [%] | REVEAL binding score, HLA-type A24 (HLA-A24) [%] | REVEAL binding score, HLA-type A29 (HLA-A29) [%] | REVEAL binding score, HLA-type B8 (HLA-B8) [%] | REVEAL binding score, HLA-type B14 (HLA-B14) [%] | REVEAL binding score, HLA-type B15 (HLA-B15) [%] | REVEAL binding score, HLA-type A11 (HLA-A11) [%] | REVEAL binding score, HLA-type A2 (HLA-A2) [%] | REVEAL binding score, HLA-type A3 (HLA-A3) [%] | REVEAL binding score, HLA-type B27 (HLA-B27) [%] | REVEAL binding score, HLA-type B7 (HLA-B7) [%] | REVEAL binding score, HLA-type B35 (HLA-B35) [%] | REVEAL binding score, HLA-type B40 (HLA-B40) [%]
GRVIETLTS | 14.42 | 0.88 | 15.59 | 12.91 | 0.20 | 8.31 | 27.62 | 5.26 | 12.46 | 1.05 | 1.25 | 3.56 | 38.91
IRNLGRVIE | 14.22 | 0.61 | 11.06 | 9.10 | 30.77 | 4.06 | 5.31 | 8.77 | 3.89 | 1.84 | 1.43 | 1.98 | 21.40
NLGRVIETL | 18.24 | 0.86 | 16.44 | 15.58 | 0.07 | 16.29 | 4.53 | 11.97 | 2.86 | 1.66 | 1.47 | 2.82 | 38.91
KVIDTLTCG | 15.77 | 0.57 | 13.16 | 13.17 | 0.18 | 10.13 | 8.91 | 19.13 | 4.27 | 0.63 | 0.57 | 2.74 | 32.89
PRLGVRATR | 17.77 | 0.97 | 13.35 | 11.46 | 0.14 | 10.04 | 2.73 | 6.85 | 3.63 | 0.86 | 42.64 | 1.65 | 14.52
VTGNIPGST | 16.18 | 1.60 | 15.05 | 13.12 | 0.75 | 5.15 | 4.85 | 8.44 | 2.52 | 1.58 | 2.24 | 4.00 | 130.97
NYATGNLPG | 11.16 | 1.13 | 34.26 | 9.96 | 0.79 | 6.06 | 4.69 | 3.94 | 8.65 | 2.33 | 0.51 | 6.44 | 75.28
VIETLTSGF | 14.61 | 0.82 | 13.07 | 12.96 | 0.35 | 10.37 | 3.66 | 4.84 | 2.55 | 1.38 | 0.71 | 2.39 | 24.04
GQIIGGNYL | 20.65 | 0.47 | 14.17 | 11.90 | 0.22 | 173.66 | 2.77 | 12.96 | 3.01 | 0.64 | 2.39 | 2.60 | 31.55
GKVIDTLTC | 14.77 | 0.41 | 14.26 | 13.63 | 0.16 | 7.31 | 3.96 | 4.89 | 3.69 | 0.84 | 0.25 | 3.11 | 19.45
